Tested on: Balb/c mice
Assay: delayed type hypersensitivity (DTH) reaction in the mouse ear, OXA-sensitized mice
Type: in vivo
Settings: for Diff Tt24-Tt0: L-forms; for Diff Tt24-Tt0 / Diff. Tt24-Tt0 / Diff Tt48-Tt0: mean; for Diff. Tt24-Tt0: ear thickness 24 hours after challenge; for Diff Tt48-Tt0: ear thickness 48 hours after challenge
Description: The property of the compounds diNAC, diBUT, diVAL, diCAP, diMeNAC, diEtNAC and diMeVAL to stimulate immune responses is illustrated by their efficacy in a model of the delayed type hypersensitivity (DTH) reaction in the mouse.
Both male and female Balb/c mice obtained from Bomholtsgaard (Denmark) and Charlie Rivers (England), were used at the weight of 18-20 gram. 4-ethoxymethylene-2-phenyloxazolone (OXA) was purchased from BDH (England) and served as an antigen in this test.
The mice were sensitized, Day 0, by epicutaneous application of 150 µl absolute ethanol-acetone (3:1) solution containing 3% OXA on the shaved thorax and abdomen. Treatment with the L-form of diNAC, diMeNAC, diEtNAC, diMeVAL, or vehicle (phosphate buffer, pH 7.0) was initiated by oral feeding immediately after sensitization and continued once daily to Day 6. […] after the sensitization both ears of all mice were challenged on both sides by topical application of 20 µl 1% OXA dissolved in peanut oil. Ear thickness was measured prior to and 24 or 48 hours after challenge using an Oditest spring calliper. Challenges and measurements were performed under light pentobarbital anasthesia. The intensity of the DTH reactions was expressed according to the formula: Tt24/48-Tt0 µm units, where t0, t24 and t48 represent the ear thickness before and 24 or 48 hours after challenge, respectively, in an individual […]. The results were expressed as the mean +/-S.E.M. The level of significance between means of the groups was obtained by Student's two-tailed t-test. Tables 1 and 2 show the results from 24 and 48 hours measurements, respectively, from a representative experiment with the L-form of diNAC. […]

[1] = Table 3, 24 h after challenge, 0.03 µmol/kg oral
[2] = Table 3, 24 h after challenge, 3.0 µmol/kg oral
[3] = Table 3, 48 h section, 0.03 µmol/kg oral
[4] = Table 3, 48 h section, 3.0 µmol/kg oral
[5] = 0.03 µmol/kg oral once daily Day 0 to Day 6
[6] = 0.30 µmol/kg oral once daily Day 0 to Day 6
[7] = 3.0 µmol/kg oral once daily Day 0 to Day 6
[8] = 30.0 µmol/kg oral once daily Day 0 to Day 6

CCOC(=O)[C@H](CSSC[C@H](NC(C)=O)C(=O)OCC)NC(C)=O [diEtNAC, N,N'-diacetylcystine diethyl ester]
Diff Tt24-Tt0 [1]: 11.75 µm units | Diff Tt24-Tt0 [2]: 13.05 µm units | Diff Tt24-Tt0 [3]: 13.15 µm units | Diff Tt24-Tt0 [4]: 13.20 µm units | immunostimulating effect in the DTH reaction in the mouse ear (result in words): highly potent and efficient immunostimulating agents

CC(=O)N[C@@H](CSSC[C@H](NC(C)=O)C(=O)O)C(=O)O [L-diNAC, N,N'-diacetyl-L-cystine]
Diff. Tt24-Tt0 [5]: 13.75 µm units | Diff. Tt24-Tt0 [6]: 15.70 µm units | Diff. Tt24-Tt0 [7]: 18.30 µm units | Diff. Tt24-Tt0 [8]: 20.67 µm units | Diff Tt48-Tt0 [5]: 11.65 µm units | Diff Tt48-Tt0 [6]: 12.65 µm units | Diff Tt48-Tt0 [7]: 14.95 µm units | Diff Tt48-Tt0 [8]: 13.63 µm units | ear thickness after oral administration (result in words, 24 and 48 hours after challenge, oral): significant increase of the ear thickness in a concentration-response manner

CCCCCCCC(=O)N[C@@H](CSSC[C@H](NC(=O)CCCCCCC)C(=O)O)C(=O)O [diCAP, N,N'-dicaprylylcystine]
immunostimulating effect in the DTH reaction in the mouse ear (result in words): highly potent and efficient immunostimulating agents

COC(=O)[C@H](CSSC[C@H](NC(=O)CC(C)C)C(=O)OC)NC(=O)CC(C)C [diMeVAL, N,N'-diisovalerylcystine dimethyl ester]
immunostimulating effect in the DTH reaction in the mouse ear (result in words): highly potent and efficient immunostimulating agents

CC(=O)N[C@@H](CSSC[C@H](NC(C)=O)C(=O)O)C(=O)O [diNAC, N,N'-diacetylcystine]
immunostimulating effect in the DTH reaction in the mouse ear (result in words): highly potent and efficient immunostimulating agents

CCCC(=O)N[C@@H](CSSC[C@H](NC(=O)CCC)C(=O)O)C(=O)O [diBUT, N,N' - dibutyrylcystine]
immunostimulating effect in the DTH reaction in the mouse ear (result in words): highly potent and efficient immunostimulating agents

COC(=O)[C@H](CSSC[C@H](NC(C)=O)C(=O)OC)NC(C)=O [diMeNAC, N,N'-diacetylcystine dimethyl ester]
Diff Tt24-Tt0 [1]: 18.00 µm units | Diff Tt24-Tt0 [2]: 12.55 µm units | Diff Tt24-Tt0 [3]: 12.85 µm units | Diff Tt24-Tt0 [4]: 13.35 µm units | immunostimulating effect in the DTH reaction in the mouse ear (result in words): highly potent and efficient immunostimulating agents

CC(C)CC(=O)N[C@@H](CSSC[C@H](NC(=O)CC(C)C)C(=O)O)C(=O)O [diVAL, N,N'-diisovalerylcystine]
immunostimulating effect in the DTH reaction in the mouse ear (result in words): highly potent and efficient immunostimulating agents

From patent publication EP0727207A1, “The pharmacological use of certain cystine derivatives” (priority 1990, dated 1991)
